Test results as given in ChEMBL document CHEMBL3885861, “Open TG-GATES”.

Organism: Rattus norvegicus
Assay: Open TG-GATES - Regimen: Single
Type: toxicity, organism-based, Sprague-Dawley
Design: regimen Single, gender Male, age 6 weeks
Settings: in vivo, po, route gavage; for gamma-GTP / ALP / ALT / AST / BUN / CRE / Ca / Cl / DBIL / GLC / IP / K / LDH / Na / PL / RALB / TBIL / TC / TG / TP: tissue Plasma; for KIDNEY_L / KIDNEY_R / KIDNEY_TOTAL: tissue Kidney; for LIVER: tissue Liver
[1] = 300 mg/kg, 3 h, tissue Blood, dose level Low
[2] = 300 mg/kg, 6 h, tissue Blood, dose level Low

Compound: CCOc1ccc(NC(C)=O)cc1 [PHENACETIN]
- gamma-GTP (0 mg/kg, 24 h, dose level Control): 1 IU/L
- TERMINAL_BW (300 mg/kg, 3 h, dose level Low): 214.8 g
- APTT [1]: 17.3 s
- Bas [1]: 0.4%
- Eos [1]: 1%
- Hb [1]: 14.3 g/dL
- Ht [1]: 42.8%
- Lym [1]: 73.2%
- MCH [1]: 20.6 pg
- MCHC [1]: 33.3%
- MCV [1]: 62.2 fL
- Mono [1]: 2.6%
- Neu [1]: 22.8%
- PT [1]: 14 s
- Plat [1]: 134.5 x10_4/uL
- RBC [1]: 689.2 x10_4/ul
- Ret [1]: 8.6%
- WBC [1]: 59.5 x10_2/uL
- KIDNEY_L (300 mg/kg, 3 h, dose level Low): 1 g
- KIDNEY_R (300 mg/kg, 3 h, dose level Low): 1 g
- KIDNEY_TOTAL (300 mg/kg, 3 h, dose level Low): 1.9 g
- LIVER (300 mg/kg, 3 h, dose level Low): 9.3 g
- ALP (300 mg/kg, 3 h, dose level Low): 1454.6 IU/L
- ALT (300 mg/kg, 3 h, dose level Low): 38.2 IU/L
- AST (300 mg/kg, 3 h, dose level Low): 72 IU/L
- BUN (300 mg/kg, 3 h, dose level Low): 8.4 mg/dL
- CRE (300 mg/kg, 3 h, dose level Low): 0.2 mg/dL
- Ca (300 mg/kg, 3 h, dose level Low): 10.9 mg/dL
- Cl (300 mg/kg, 3 h, dose level Low): 101 meq/L
- DBIL (300 mg/kg, 3 h, dose level Low): 0 mg/dL
- GLC (300 mg/kg, 3 h, dose level Low): 206.6 mg/dL
- IP (300 mg/kg, 3 h, dose level Low): 11.3 mg/dL
- K (300 mg/kg, 3 h, dose level Low): 3.7 meq/L
- LDH (300 mg/kg, 3 h, dose level Low): 77.4 IU/L
- Na (300 mg/kg, 3 h, dose level Low): 141.6 meq/L
- PL (300 mg/kg, 3 h, dose level Low): 152.4 mg/dL
- RALB (300 mg/kg, 3 h, dose level Low): 2.6 g/dL
- TBIL (300 mg/kg, 3 h, dose level Low): 0.034 mg/dL
- TC (300 mg/kg, 3 h, dose level Low): 83.2 mg/dL
- TG (300 mg/kg, 3 h, dose level Low): 78.2 mg/dL
- TP (300 mg/kg, 3 h, dose level Low): 5.7 g/dL
- gamma-GTP (300 mg/kg, 3 h, dose level Low): 1.4 IU/L
- TERMINAL_BW (300 mg/kg, 6 h, dose level Low): 205.3 g
- APTT [2]: 16.7 s
- Bas [2]: 0%
- Eos [2]: 0.2%
- Fbg [2]: 332.4 mg/dL
- Ht [2]: 43.8%
- Lym [2]: 74%
- MCH [2]: 21.2 pg
- MCHC [2]: 33.7%
- MCV [2]: 62.9 fL
- Mono [2]: 2.4%
- PT [2]: 14.2 s
- Plat [2]: 124.8 x10_4/uL
- RBC [2]: 696 x10_4/ul
- Ret [2]: 8.3%
- WBC [2]: 66.9 x10_2/uL
- KIDNEY_L (300 mg/kg, 6 h, dose level Low): 1 g
- KIDNEY_R (300 mg/kg, 6 h, dose level Low): 0.9 g
- KIDNEY_TOTAL (300 mg/kg, 6 h, dose level Low): 1.9 g
- LIVER (300 mg/kg, 6 h, dose level Low): 9.1 g
- ALP (300 mg/kg, 6 h, dose level Low): 1428.2 IU/L
- ALT (300 mg/kg, 6 h, dose level Low): 39 IU/L
- AST (300 mg/kg, 6 h, dose level Low): 71.2 IU/L
- BUN (300 mg/kg, 6 h, dose level Low): 9.6 mg/dL
- CRE (300 mg/kg, 6 h, dose level Low): 0.1 mg/dL
- Ca (300 mg/kg, 6 h, dose level Low): 11.1 mg/dL
- Cl (300 mg/kg, 6 h, dose level Low): 101.2 meq/L
- DBIL (300 mg/kg, 6 h, dose level Low): 0 mg/dL
- GLC (300 mg/kg, 6 h, dose level Low): 198.4 mg/dL
- IP (300 mg/kg, 6 h, dose level Low): 10.1 mg/dL
- K (300 mg/kg, 6 h, dose level Low): 3.7 meq/L
- LDH (300 mg/kg, 6 h, dose level Low): 80.4 IU/L
- Na (300 mg/kg, 6 h, dose level Low): 140.4 meq/L
- PL (300 mg/kg, 6 h, dose level Low): 152.6 mg/dL
- RALB (300 mg/kg, 6 h, dose level Low): 2.7 g/dL
- TBIL (300 mg/kg, 6 h, dose level Low): 0.046 mg/dL
- TC (300 mg/kg, 6 h, dose level Low): 94.2 mg/dL
- TG (300 mg/kg, 6 h, dose level Low): 35.6 mg/dL
- TP (300 mg/kg, 6 h, dose level Low): 5.8 g/dL
